We go through 11 compounds from ChEMBL document CHEMBL3585250, “New pyrazolo[4,3-e][1,2,4]triazine sulfonamides as carbonic anhydrase inhibitors” (Bioorg Med Chem, 2015).

Broadly, the IC50 is the midpoint of a concentration-inhibition curve. One may read the Ki as a measure of affinity in units of concentration, obtained from inhibition or displacement. Read a high Ki as weaker binding.

Experiment [1] has as its system MCF7. Kind of experiment: Cytotoxic activity against human MCF7 cells assessed as reduction in cell viability incubated for 24 hrs by MTT assay. The class given is functional, cell-based. The settings on record: MCF7, 24 h.
The target in another experiment is Carbonic anhydrase 2 (Homo sapiens, UniProt P00918). Put plainly: Inhibition of human carbonic anhydrase-2 pre-incubated for 15 mins by stopped-flow CO2 hydration assay based Lineweaver-Burk plot method.
The test system of experiment [2] is MDA-MB-231. Kind of experiment: Cytotoxic activity against human MDA-MB-231 cells assessed as reduction in cell viability incubated for 24 hrs by MTT assay. The note with it: MDA-MB-231, 24 h. The experiment is classed as functional, cell-based. Background: Tetrazolium assays rely on reduction of a dye to a coloured formazan, in cell work by metabolically active cells.

The next experiment deals with Carbonic anhydrase 9 (Homo sapiens, UniProt Q16790). Put plainly: Inhibition of human carbonic anhydrase-9 pre-incubated for 15 mins by stopped-flow CO2 hydration assay based Lineweaver-Burk plot method.
The next experiment concerns the target Carbonic anhydrase 1 (Homo sapiens, UniProt P00915). Kind of experiment: Inhibition of human carbonic anhydrase-1 pre-incubated for 15 mins by stopped-flow CO2 hydration assay based Lineweaver-Burk plot method.
The target in the next experiment is Carbonic anhydrase 12 (Homo sapiens, UniProt O43570). Kind of experiment: Inhibition of human carbonic anhydrase-12 pre-incubated for 15 mins by stopped-flow CO2 hydration assay based Lineweaver-Burk plot method.
Experiment [3] has as its system MCF7. Kind of experiment: Inhibition of DNA synthesis in human MCF7 cells assessed as reduction in [3H]-thymidine incorporation incubated for 24 hrs by liquid scintillation counting method. The experiment is classed as functional, cell-based.
Experiment [4] concerns MDA-MB-231. Put plainly: Inhibition of DNA synthesis in human MDA-MB-231 cells assessed as reduction in [3H]-thymidine incorporation incubated for 24 hrs by liquid scintillation counting method. The experiment is classed as functional, cell-based.

Carbonic anhydrase 12, sequence (O43570 whole entry): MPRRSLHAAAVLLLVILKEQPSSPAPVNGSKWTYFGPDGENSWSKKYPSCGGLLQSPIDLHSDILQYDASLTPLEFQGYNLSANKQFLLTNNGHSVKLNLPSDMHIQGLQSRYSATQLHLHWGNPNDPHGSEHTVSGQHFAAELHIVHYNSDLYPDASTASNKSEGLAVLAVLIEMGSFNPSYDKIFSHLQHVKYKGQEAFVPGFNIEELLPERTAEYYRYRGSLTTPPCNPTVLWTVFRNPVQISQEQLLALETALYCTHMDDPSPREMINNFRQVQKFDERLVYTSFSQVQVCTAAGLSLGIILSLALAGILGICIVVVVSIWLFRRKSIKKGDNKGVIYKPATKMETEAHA
Carbonic anhydrase 1, sequence (P00915 whole entry): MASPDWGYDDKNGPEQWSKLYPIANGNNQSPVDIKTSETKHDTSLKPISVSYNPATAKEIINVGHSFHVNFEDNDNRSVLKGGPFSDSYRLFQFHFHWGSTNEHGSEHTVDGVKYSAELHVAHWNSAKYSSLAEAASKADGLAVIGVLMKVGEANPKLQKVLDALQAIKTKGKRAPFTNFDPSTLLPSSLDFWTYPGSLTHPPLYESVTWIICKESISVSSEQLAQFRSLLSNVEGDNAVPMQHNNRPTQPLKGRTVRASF

For `CCOc1ccc(S(=O)(=O)NC[C@@H](C)O)cc1-c1nnc2c(n1)c(C)nn2-c1ccc(C)cc1`, the IC50 with MCF7 [1], in the experiment on MDA-MB-231 [2], in the experiment with MCF7 [3] and in the experiment with MDA-MB-231 [4] was greater than 200000 nM in each case. In addition, the Ki on Carbonic anhydrase 2 is greater than 50000 nM; at Carbonic anhydrase 9 it was 35.6 nM; at Carbonic anhydrase 1, 798 nM; on Carbonic anhydrase 12, 77.8 nM.
Regarding `CCOc1ccc(S(=O)(=O)NC[C@H](C)O)cc1-c1nnc2c(n1)c(C)nn2-c1ccc(C)cc1`, the IC50 in the experiment on MCF7 [1], with MDA-MB-231 [2], in the experiment with MCF7 [3] and in the experiment with MDA-MB-231 [4] was greater than 200000 nM each time. Further, the Ki at Carbonic anhydrase 2 was greater than 50000 nM; on Carbonic anhydrase 9, 13.8 nM; at Carbonic anhydrase 1, 810 nM; on Carbonic anhydrase 12, 82.8 nM.
On to `CCOc1ccc(S(=O)(=O)N2CCN(C)CC2)cc1-c1nnc2c(n1)c(C)nn2-c1ccc(S(=O)(=O)N2CCN(C)CC2)cc1`, for which the IC50 with MCF7 [1], in the experiment on MDA-MB-231 [2], in the experiment with MCF7 [3] and in the experiment with MDA-MB-231 [4] was greater than 200000 nM throughout. In addition, the Ki is greater than 50000 nM on Carbonic anhydrase 2, 29.6 nM on Carbonic anhydrase 9, 467 nM on Carbonic anhydrase 1 and 536 nM at Carbonic anhydrase 12.
Regarding `CCOc1ccc(S(N)(=O)=O)cc1-c1nnc2c(n1)c(C)nn2-c1ccc(C)cc1`, the results for the Ki on Carbonic anhydrase 2, at Carbonic anhydrase 1 and on Carbonic anhydrase 12 were 7070 nM, 4490 nM and 77.5 nM, respectively.
As for `CCOc1ccc(S(=O)(=O)N2CCN(C)CC2)cc1-c1nnc2c(n1)c(C)nn2-c1ccc(Cl)cc1`, the IC50 in the experiment with MCF7 [1], in the experiment on MDA-MB-231 [2], with MCF7 [3] and in the experiment with MDA-MB-231 [4] was greater than 200000 nM each time. The Ki at Carbonic anhydrase 2 was greater than 50000 nM; at Carbonic anhydrase 9, 403 nM; at Carbonic anhydrase 1 it was 854 nM; at Carbonic anhydrase 12, 81.5 nM.
With `CCOc1ccc(S(=O)(=O)N2CCN(C)CC2)cc1-c1nnc2c(n1)c(C)nn2-c1ccc(C)cc1`, the Ki at Carbonic anhydrase 2 was greater than 50000 nM; at Carbonic anhydrase 9, 25.4 nM; at Carbonic anhydrase 1, 330 nM; at Carbonic anhydrase 12 it was 78.1 nM.
For `CCOc1ccc(S(=O)(=O)NCCO)cc1-c1nnc2c(n1)c(C)nn2-c1ccc(C)cc1`, the Ki on Carbonic anhydrase 2 is greater than 50000 nM; on Carbonic anhydrase 9, 24.5 nM; at Carbonic anhydrase 1, 605 nM; at Carbonic anhydrase 12, 91.5 nM.
In the case of `CCOc1ccc(S(=O)(=O)N2CCN(C)CC2)cc1-c1nnc2c(n1)c(C)nn2-c1ccc(S(=O)(=O)N2CCN(C)CC2)c(Cl)c1`, the inhibition constant Ki on Carbonic anhydrase 2 was greater than 50000 nM; at Carbonic anhydrase 9, 417 nM; on Carbonic anhydrase 1, 571 nM; at Carbonic anhydrase 12, 79.4 nM.
On to `CCOc1ccc(S(=O)(=O)N2CCNCC2)cc1-c1nnc2c(n1)c(C)nn2-c1ccc(Cl)cc1`, for which the Ki on Carbonic anhydrase 2 is greater than 50000 nM; on Carbonic anhydrase 1, 4220 nM; at Carbonic anhydrase 12, 93.1 nM.
As for `CCOc1ccc(S(=O)(=O)N[C@H](C)CC)cc1-c1nnc2c(n1)c(C)nn2-c1ccc(C)cc1`, the IC50 in the experiment with MCF7 [1], with MDA-MB-231 [2], in the experiment with MCF7 [3] and in the experiment on MDA-MB-231 [4] was greater than 200000 nM throughout. In addition, the Ki on Carbonic anhydrase 2 was greater than 50000 nM; at Carbonic anhydrase 9, 26.6 nM; at Carbonic anhydrase 1 it was 3720 nM; at Carbonic anhydrase 12, 70.3 nM.
`CCOc1ccc(S(=O)(=O)N[C@@H](C)CC)cc1-c1nnc2c(n1)c(C)nn2-c1ccc(C)cc1`: the IC50 in the experiment with MCF7 [1], in the experiment with MDA-MB-231 [2], in the experiment on MCF7 [3] and in the experiment with MDA-MB-231 [4] was greater than 200000 nM each time. Besides, the inhibition constant (Ki) was greater than 50000 nM on Carbonic anhydrase 2, 27.7 nM at Carbonic anhydrase 9, 3440 nM at Carbonic anhydrase 1 and 77.6 nM at Carbonic anhydrase 12.
